The record followed here is BindingDB's records for doi:10.1021/jm9904102 (Abbott Laboratories, 2000).

The experiment in a line: Inhibition of calcium ionophore (A-23187)-stimulated LTB4 formation in human neutrophil assay.
As a reminder, the IC50 is the point on the concentration scale where inhibition reaches its midpoint. Turning to `C/C(=N\OC(c1ccc(OCc2ccc3ccccc3n2)cc1)C1CCCC1)C(=O)O` (centres undefined) [2-{Cyclopentyl-[4-(quinolin-2-ylmethoxy)-phenyl]-methoxyimino}-propionic acid], the IC50 was determined as 16 nM. With `O=C(O)/C(=N\OC(c1ccc(OCc2ccc3ccccc3n2)cc1)C1CCCCC1)c1cccs1` (centres undefined) the figure was 23 nM. Consider `C/C(=N\OC(Cc1ccc(OCc2ccc3ccccc3n2)cc1)C1CCCCC1)C(=O)O` (centres undefined) [2-{1-Cyclohexyl-2-[4-(quinolin-2-ylmethoxy)-phenyl]-ethoxyimino}-propionic acid], for which the IC50 was 50 nM. With `C/C(=N\OC(c1ccc(OCc2ccc3ccccc3n2)cc1)C1C2CC3CC(C2)CC1C3)C(=O)O` (centres undefined) [2-{Adamantan-2-yl-[4-(quinolin-2-ylmethoxy)-phenyl]-methoxyimino}-propionic acid] the figure was 20 nM; with `O=C(O)/C(Cc1ccccc1)=N/OC(c1ccc(OCc2ccc3ccccc3n2)cc1)C1CCCCC1` (centres undefined) [2-{Cyclohexyl-[4-(quinolin-2-ylmethoxy)-phenyl]-methoxyimino}-3-phenyl-propionic acid (H2O)], 35 nM; with `O=C(O)/C=N/OC(c1ccc(OCc2nc3cccnc3s2)cc1)C1CCCCC1` (centres undefined) [{Cyclohexyl-[4-(thiazolo[5,4-b]pyridin-2-ylmethoxy)-phenyl]-methoxyimino}-acetic acid], 27 nM. With `O=C(O)/C=N/OC(c1ccc(/C=C/c2ccc3ccccc3n2)cc1)C1CCCCC1` (centres undefined) [{Cyclohexyl-[4-(2-quinolin-2-yl-vinyl)-phenyl]-methoxyimino}-acetic acid (0.25H2O)] the figure was 91 nM; with `C/C(=N\O[C@@H](c1ccc(OCc2ccc3ccccc3n2)cc1)C1CCCCC1)C(=O)O`, 70 nM. With `O=C(O)/C(=N/OC(c1ccc(OCc2ccc3ccccc3n2)cc1)C1CCCCC1)c1ccccc1` (centres undefined) [{Cyclohexyl-[4-(quinolin-2-ylmethoxy)-phenyl]-methoxyimino}-phenyl-acetic acid (0.5H2O)] the figure was 31 nM. In the case of `C/C(=N\OC(c1ccc(OCc2cscn2)cc1)C1CCCCC1)C(=O)O` (centres undefined) [2-{Cyclohexyl-[4-(thiazol-4-ylmethoxy)-phenyl]-methoxyimino}-propionic acid (0.25H2O)], the IC50 was 360 nM. Consider `C/C(=N\O[C@H](c1ccc(OCc2ccc3ccccc3n2)cc1)C1CCCCC1)C(=O)O` [listing 1 of 2 here], for which the IC50 worked out at 34 nM. As for `CC(C)(C)SC/C(=N\OC(c1ccc(OCc2ccc3ccccc3n2)cc1)C1CCCCC1)C(=O)O` (centres undefined) [3-tert-Butylsulfanyl-2-{cyclohexyl-[4-(quinolin-2-ylmethoxy)-phenyl]-methoxyimino}-propionic acid], the IC50 came to 120 nM. As for `C/C(CCC(=O)O)=N/OC(c1ccc(OCc2ccc3ccccc3n2)cc1)C1CCCCC1` (centres undefined), the IC50 is 20 nM. With `C/C(=N\O[C@H](c1ccc(OCc2ccc3ccccc3n2)cc1)C1CCCCC1)C(=O)O` [listing 2 of 2 here], the IC50 was 8 nM. With `O=C(O)/C=N/OC(c1ccc(OCc2ccc3ccccc3n2)cc1)C1C2CC3CC(C2)CC1C3` (centres undefined) [{Adamantan-2-yl-[4-(quinolin-2-ylmethoxy)-phenyl]-methoxyimino}-acetic acid] the figure was 21 nM; with `CCCCC(O/N=C/C(=O)O)c1ccc(OCc2ccc3ccccc3n2)cc1` (centres undefined) [{1-[4-(Quinolin-2-ylmethoxy)-phenyl]-pentyloxyimino}-acetic acid], 52 nM; with `O=C(O)[C@@H](c1ccc(OCc2ccc3ccccc3n2)cc1)C1CCCC1` [(R)-Cyclopentyl-[4-(quinolin-2-ylmethoxy)-phenyl]-acetic acid], 60 nM. With `C=CCC(O/N=C(\C)C(=O)O)c1ccc(OCc2ccc3ccccc3n2)cc1` (centres undefined) [2-{1-[4-(Quinolin-2-ylmethoxy)-phenyl]-but-3-enyloxyimino}-propionic acid] the figure was 142 nM. Consider `CC/C(=N\OC(c1ccc(OCc2ccc3ccccc3n2)cc1)C1CCCCC1)C(=O)O` (centres undefined) [2-{Cyclohexyl-[4-(quinolin-2-ylmethoxy)-phenyl]-methoxyimino}-butyric acid (H2O)], for which the IC50 was found to be 30 nM.

For `C/C(=N\OC(c1ccc(OCc2ccc3ccccc3n2)c(C)c1)C1CCCCC1)C(=O)O` (centres undefined) [2-{Cyclohexyl-[3-methyl-4-(quinolin-2-ylmethoxy)-phenyl]-methoxyimino}-propionic acid (0.1H2O)], the IC50 turned out to be 20 nM. With `C/C(=N\OC(c1ccc(OCc2ccc3ccccc3n2)c(Cl)c1)C1CCCCC1)C(=O)O` (centres undefined) [2-{[3-Chloro-4-(quinolin-2-ylmethoxy)-phenyl]-cyclohexyl-methoxyimino}-propionic acid] the figure was 27 nM; with `CCCCC(CCCC)C(O/N=C(\C)C(=O)O)c1ccc(OCc2ccc3ccccc3n2)cc1` (centres undefined) [2-{2-Butyl-1-[4-(quinolin-2-ylmethoxy)-phenyl]-hexyloxyimino}-propionic acid (2H2O)], 14 nM; with `O=C(O)/C=N/OC(c1ccc(OCc2cc(-c3ccccc3)on2)cc1)C1CCCCC1` (centres undefined) [{Cyclohexyl-[4-(5-phenyl-isoxazol-3-ylmethoxy)-phenyl]-methoxyimino}-acetic acid], 140 nM. Consider `O=C(O)/C=N/OC(c1ccc(OCc2nc3ccccc3s2)cc1)C1CCCCC1` (centres undefined) [{[4-(Benzothiazol-2-ylmethoxy)-phenyl]-cyclohexyl-methoxyimino}-acetic acid], for which the IC50 turned out to be 60 nM.

For `C/C(CCC(=O)O)=N\OC(c1ccc(OCc2ccc3ccccc3n2)cc1)C1CCCCC1` (centres undefined) [(Z)-4-{Cyclohexyl-[4-(quinolin-2-ylmethoxy)-phenyl]-methoxyimino}-pentanoic acid], the IC50 worked out at 17 nM.

`C/C(=N\OC(CC(C)(C)c1ccccc1)c1ccc(OCc2ccc3ccccc3n2)cc1)C(=O)O` (centres undefined) [2-{3-Methyl-3-phenyl-1-[4-(quinolin-2-ylmethoxy)-phenyl]-butoxyimino}-propionic acid (0.25H2O)]: the IC50 stood at 22 nM. With `O=C(O)/C=N/OC(c1ccc(OCc2ccc3ccccc3n2)cc1)C1CCCCCC1` (centres undefined) [{Cycloheptyl-[4-(quinolin-2-ylmethoxy)-phenyl]-methoxyimino}-acetic acid] the figure was 18 nM; with `C/C(=N\OC(c1ccc(OCc2nc3cc(F)ccc3s2)cc1Cl)C1CCCCC1)C(=O)O` (centres undefined) [2-{[2-Chloro-4-(5-fluoro-benzothiazol-2-ylmethoxy)-phenyl]-cyclohexyl-methoxyimino}-propionic acid], 48 nM; with `C/C(=N\OC(c1ccc(OCc2nc3ccccc3s2)cc1Cl)C1CCCCC1)C(=O)O` (centres undefined) [2-{[4-(Benzothiazol-2-ylmethoxy)-2-chloro-phenyl]-cyclohexyl-methoxyimino}-propionic acid], 28 nM. With `O=C(O)/C=N/OC(c1ccc(Oc2ccc3ccccc3n2)cc1)C1CCCCC1` (centres undefined) [{Cyclohexyl-[4-(quinolin-2-yloxy)-phenyl]-methoxyimino}-acetic acid (0.25H2O)] the figure was 160 nM; with `O=C(O)/C=N/OC(c1ccc2cc(OCc3ccc4ccccc4n3)ccc2c1)C1CCCCC1` (centres undefined) [{Cyclohexyl-[6-(quinolin-2-ylmethoxy)-naphthalen-2-yl]-methoxyimino}-acetic acid], 56 nM.

For the compound `Cc1cc(C(O/N=C/C(=O)O)C2CCCCC2)ccc1OCc1ccc2ccccc2n1` (centres undefined) [{Cyclohexyl-[3-methyl-4-(quinolin-2-ylmethoxy)-phenyl]-methoxyimino}-acetic acid (0.4H2O)], the IC50 came to 20 nM. Turning to `CCCCC(CCCC)C(O/N=C/C(=O)O)c1ccc(OCc2ccc3ccccc3n2)cc1` (centres undefined) [{2-Butyl-1-[4-(quinolin-2-ylmethoxy)-phenyl]-hexyloxyimino}-acetic acid], the IC50 worked out at 10 nM. With `O=C(O)CSC(CCCc1ccc(Cl)cc1)c1ccc(OCc2ccc3ccccc3n2)cc1` [L-674636] the figure was 7 nM; with `C/C(=N\OC(Cc1ccccc1)c1ccc(OCc2ccc3ccccc3n2)cc1)C(=O)O` (centres undefined) [2-{2-Phenyl-1-[4-(quinolin-2-ylmethoxy)-phenyl]-ethoxyimino}-propionic acid (0.25H2O)], 30 nM. With `C/C(=N\OC(CC1CCCCC1)c1ccc(OCc2ccc3ccccc3n2)cc1)C(=O)O` (centres undefined) [2-{2-Cyclohexyl-1-[4-(quinolin-2-ylmethoxy)-phenyl]-ethoxyimino}-propionic acid] the figure was 29 nM. With `C/C(CCCCCC(=O)O)=N\OC(c1ccc(OCc2ccc3ccccc3n2)cc1)C1CCCCC1` (centres undefined) [7-{Cyclohexyl-[4-(quinolin-2-ylmethoxy)-phenyl]-methoxyimino}-octanoic acid (0.25H2O)] the figure was 17 nM; with `C/C(CCCC(=O)O)=N\OC(c1ccc(OCc2ccc3ccccc3n2)cc1)C1CCCCC1` (centres undefined) [5-{Cyclohexyl-[4-(quinolin-2-ylmethoxy)-phenyl]-methoxyimino}-hexanoic acid], 59 nM. For `O=C(O)/C(=N/OC(c1ccc(OCc2ccc3ccccc3n2)cc1)C1CCCCC1)c1cccs1` (centres undefined) [(E)-{Cyclohexyl-[4-(quinolin-2-ylmethoxy)-phenyl]-methoxyimino}-thiophen-2-yl-acetic acid (2.5H2O)], the IC50 came to 21 nM. With `O=C(O)/C(CCc1ccccc1)=N/OC(c1ccc(OCc2ccc3ccccc3n2)cc1)C1CCCCC1` (centres undefined) [2-{Cyclohexyl-[4-(quinolin-2-ylmethoxy)-phenyl]-methoxyimino}-4-phenyl-butyric acid (0.5H2O)] the figure was 20 nM; with `O=C(O)/C=N/OC(c1ccc(OCc2ccc3ccccc3n2)cc1)C1CCCCC1` (centres undefined) [{Cyclohexyl-[4-(quinolin-2-ylmethoxy)-phenyl]-methoxyimino}-acetic acid], 17 nM.

Regarding `C/C(=N\OC(c1cc2ccc(OCc3ccc4ccccc4n3)cc2s1)C1CCCCC1)C(=O)O` (centres undefined) [2-{Cyclohexyl-[6-(quinolin-2-ylmethoxy)-benzo[b]thiophen-2-yl]-methoxyimino}-propionic acid], the IC50 was 40 nM. With `Cc1nc(COc2ccc(C(O/N=C/C(=O)O)C3CCCCC3)cc2)cs1` (centres undefined) [{Cyclohexyl-[4-(2-methyl-thiazol-4-ylmethoxy)-phenyl]-methoxyimino}-acetic acid], the IC50 was determined as 380 nM.

As to `COc1cc(OCc2ccc3ccccc3n2)ccc1C(O/N=C/C(=O)O)C1CCCCC1` (centres undefined) [{Cyclohexyl-[2-methoxy-4-(quinolin-2-ylmethoxy)-phenyl]-methoxyimino}-acetic acid], the 50% inhibitory concentration (IC50) was found to be 20 nM.
